Data set [1] deals with cathepsin D isolated from the human liver (Homo sapiens (Human), UniProt P07339). The data set can be described thus: In-vitro fluorescence assay for identification of cathepsin D inhibitors. To be noted: cathepsin D 1.4 nM, pH 5.5; read-out: CatD assay IC50-. The data set is classed as biochemical. An outline of the steps: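 Human liver cathepsin D (1.4 nM final) preincubated 10 min at room temperature with serially diluted compounds in 100 mM sodium acetate pH 5.5, 1.25% DMSO, 0.25% CHAPS. Reaction started with 5 μM MCA/Dnp-quenched peptide substrate. Fluorescence increase (ex 340/em 450 nm) over 60 min at room temperature compared with compound-free wells.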

The next data set deals with bovine explants. The data set can be described thus: Cartilage explant assay (pH-induced cartilage degradation, GAG liberation). It counts as cell-based. To be noted: Bos taurus, 72 h, pH 5.5, 3 days. From the text: In order to investigate the effect of potential cathepsin D inhibitors on cartilage degradation, a pH-induced model based on bovine explants is used. The pH of the medium in which the explants are cultivated is matched here to the pathophysiological pH of an arthrotic knee. This pH is pH 5.5. In this ex vivo model, potential cathepsin D inhibitors are subsequently investigated for their action with respect to stopping of the cartilage degradation process. If the cartilage is destroyed, glycosaminoglycans (GAGs) are released into the cell culture supernatant. The amount of GAGs liberated can be determined quantitatively with the aid of DMMB (dimethylmethylene blue hydrochloride). If sulfated GAGs are detected using dimethylmethylene blue hydrochloride, the decrease in the absorption at 633 nm is utilised. […] In order to determine the concentration, a calibration line is also recorded using chondroitin sulfate.
The bovine explants are firstly prepared. The induction of the cartilage degradation is carried out in 96-multiwell plates. One explant is cultivated per well. In each case, 200 μl of DMEM (incubation medium pH 5.5) without FBS+30 μg/ml of ascorbic acid are added. Thus negative control, explants (n=4) are incubated at pH 7.4 (without FBS). This control is not included in the calculation of the data, but instead ensures that the pH change has the desired effect on the liberation of GAG. At this point, the substances to be tested are added. No preincubation of the explants is carried out. The explants are cultivated with the corresponding substances for 3 days in the incubator at 37° C. and 7.5% CO2.
In order to investigate the effect of cathepsin D inhibitors on the liberation of GAG (glycosaminoglycan), the substances are employed in the desired concentration and cultivated for 3 days. The compounds to be tested are tested in a first experiment in a concentration of 1 μM and 1% of DMSO. Substances which have an effect of >50% on the liberation of GAG (this corresponds to <50% of the control in the Assay Explorer) are tested in the next experiment at 100 nM and 1% of DMSO. Substances which have an effect of >50% on the liberation of GAG under these conditions (this corresponds to <50% of the control in the Assay Explorer) are tested in a concentration/effect relationship. The compounds here are investigated in the following concentrations: 30 μM, 10 μM, 3 μM, 1 μM, […], 0.1 μM, 0.03 μM, 0.01 μM.
The positive control used is pepstatin A with a concentration of 0.01 μM. The assay window is defined by the control (pH 5.5), defined as 0% effect, and the control pH 5.5+0.01 μM pepstatin A, defined as 100% effect. After incubation for 3 days, the cell culture supernatants are collected and stored at −20° C. or measured directly. The amount of liberated GAG is measured photometrically.
The effect (1 value) of the respective substance in % based on the positive control (pH 5.5+0.01 μM pepstatin A) and the negative control (pH 5.5) is reported for concentrations of 1 μM and 100 nM. The value represents the average of 4 replicants. In the determination of a concentration/effect relationship, an IC50 value is reported to the database (Assay Explorer).
The cell culture supernatants (200 μl) are either measured directly or stored at −20° C. In order to ensure an accurate determination of the concentration (μg/ml of GAG in the supernatant) of GAG, the measurement values must be located in the linear region of the standard curve. In order to ensure this, various dilutions are routinely introduced (1/5, 1/10, 1/20, 1/40). The dilutions are prepared with medium and introduced automatically (Hamilton) into a 384-well plate (15 μl). 60 μl of DMMB solution are likewise added automatically (or using a multichannel pipette). A rapid colour reaction occurs, which is subsequently measured at 633 nm using a plate reader (for example Envision).

The target in another data set is recombinant human renin (Homo sapiens (Human), UniProt P00797). Nature of the data set: In-vitro fluorescence assay for identification of renin-inhibitory activity. It counts as biochemical. To be noted: recombinant human renin 10 nM, pH 7.2; read-out: Renin selectivity IC50. An outline of the steps: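 Recombinant human renin (10 nM) pre-incubated 15 min at RT with serially diluted compound in 50 mM Mops pH 7.2, 1.5% DMSO, 0.1% Igepal, 0.5% BSA; Edans/Dabcyl FRET peptide (5 µM final) added, 60 min at 37 °C; cleavage read as fluorescence increase (ex 340/em 495 nm) against no-compound wells.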

The nature of data set [2]: Stability in bovine synovial fluid. The data set is classed as in vitro ADME. As to conditions: 1 μM, 48 h at 37° C. As for the experimental part: In order to check the stability of individual compounds, a pool of four different bovine synovial fluids is mixed. To this end, about 1 ml per SF is used. The mixture is prepared directly in a 5 ml glass vessel. The SFs are mixed thoroughly, but carefully. No air bubbles or foam should form. To this end, a vortex unit is used at the lowest speed. The compounds to be tested are tested in an initial concentration (unless required otherwise) of 1 μM. After addition of the substance, the batch is again mixed thoroughly and carefully. For visual monitoring, all SF batches are photographed, and the pictures are filed in the eLabBio file for the corresponding experiment. […] The batches are incubated in the incubator for 48 h at 37° C. and 7.5% CO2.
The sampling is carried out after the pre-agreed times (unless required otherwise, see below). 200 μl of the SF are removed from the mixture per time and transferred directly into a 0.5 ml “low-binding” Eppendorf vessel. “Low-binding” Eppendorf vessels are used in order to minimise interaction of the substances with the plastic of the vessels. 200 μl of acetonitrile have already been introduced into the Eppendorf vessel, so that a 1+1 mixture of the SF forms thereafter. This simplifies the subsequent analysis, but precipitation of protein may occur immediately after addition of the SF. This should be noted on the protocol. The 0 h sample is taken immediately after addition of the substance. This corresponds to the 100% value in the stability calculation. Ideally, the concentration employed should be retrieved here. The samples can be frozen at −20° C. • 0 h • 6 h • 24 h • 48 h
The negative control used is SF without substance. The positive control used is SF with 1 μM of substance. This corresponds to the 0 h value and thus 100% stability.
The concentrations measured (ng/ml) are plotted against the time in a graph (GraphPad Prism®). The percentage stability of the substance is determined here. The 100% value used is the initial value in the SF at time 0 h. The data are stored in eLabBio under the respective experiment number and reported in the MSR database (as percent stability after the corresponding incubation times).

As a reminder, the IC50 is the midpoint of a concentration-inhibition curve.

Numbered stars: 1 amine (or outer) side, 2 acyl side, 3 side chain; on linkers, the order of the positions; unused ones are H or OH. Square brackets hold non-standard residues; d marks the D form. Peptide text beside a SMILES is read from it. * marks the point of attachment. X1 = N[C@@H](CC(=O)[*:2])[C@H](Cc1ccccc1)N[*:1]; Isovaleryl = CC(C)CC(=O)*; Abu = CC[C@H](N)C(=O)O; Boc = CC(C)(C)OC(=O)*

cathepsin D isolated from the human liver, sequence (P07339 65-161): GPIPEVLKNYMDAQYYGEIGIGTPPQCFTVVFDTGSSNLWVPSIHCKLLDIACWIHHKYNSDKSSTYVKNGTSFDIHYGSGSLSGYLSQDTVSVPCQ
cathepsin D isolated from the human liver, sequence (P07339 169-412): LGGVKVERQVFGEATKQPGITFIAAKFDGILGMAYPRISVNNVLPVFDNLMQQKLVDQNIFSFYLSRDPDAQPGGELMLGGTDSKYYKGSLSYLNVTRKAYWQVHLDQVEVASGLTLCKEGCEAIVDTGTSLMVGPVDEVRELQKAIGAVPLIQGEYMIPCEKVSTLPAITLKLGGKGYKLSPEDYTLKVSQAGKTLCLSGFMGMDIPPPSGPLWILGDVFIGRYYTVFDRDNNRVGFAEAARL
recombinant human renin, sequence (P00797 67-406): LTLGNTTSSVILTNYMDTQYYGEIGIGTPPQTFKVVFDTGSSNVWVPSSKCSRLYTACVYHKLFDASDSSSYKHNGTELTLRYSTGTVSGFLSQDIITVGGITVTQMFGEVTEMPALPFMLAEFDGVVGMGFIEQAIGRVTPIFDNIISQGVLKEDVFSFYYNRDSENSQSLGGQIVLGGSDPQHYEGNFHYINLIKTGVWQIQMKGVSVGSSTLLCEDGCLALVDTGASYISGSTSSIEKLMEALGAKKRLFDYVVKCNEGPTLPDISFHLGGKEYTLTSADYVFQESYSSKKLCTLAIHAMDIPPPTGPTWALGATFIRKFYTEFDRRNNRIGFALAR

On to `CC[C@H](NC(=O)[C@H](CC(C)C)NC(=O)CC(C)C)C(=O)N[C@@H](Cc1ccccc1)[C@@H](N)CC(=O)NCCc1ccc2c(c1)OCO2` [Compound 5, N-(2-Benzo-1,3-dioxol-5-ylethyl)-(3S,4S)-3-amino-4-{(S)-2-[(S)-4-methyl-2-(3-methyl-butyrylamino)pentanoylamino]butyryl-amino}-5-phenylpentanamide], for which the IC50 is 1.8 µM in data set [1], 0.00773 µM in the data set with bovine explants and above 30 µM on recombinant human renin.

Regarding `CC[C@H](C)[C@H](NC(=O)C[C@H](N)[C@H](Cc1ccccc1)NC(=O)[C@@H](NC(=O)Cc1cccc(OC(F)(F)F)c1)[C@@H](C)CC)C(=O)N[C@H](C(=O)O)C(C)C` [Compound 37, (S)-2-[(2S,3S)-2-((3S,4S)-3-Amino-4-{(1S,4S)-3-methyl-2-[2-(3-trifluoromethoxy-phenyl)acetylamino]pentanoylamino}-5-phenylpentanoylamino)-3-methylpentanoylamino]-3-methylbutyric acid], the IC50 in data set [1] is 0.0032 µM; with bovine explants, 0.0082 µM; on recombinant human renin, above 30 µM.

Consider `CC[C@H](C)[C@H](NC(=O)C[C@H](N)[C@H](Cc1ccccc1)NC(=O)[C@@H](NC(=O)[C@H](CC(C)C)NC(=O)CC(C)C)C(C)C)C(=O)Nc1cccnc1` [Compound 25, N-[(1S,2S)-2-Methyl-1-(pyridin-3-yl-carbamoyl)butyl]-(S)-3-amino-4-{(S)-(S)-3-methyl-2-[(S)-4-methyl-2-(3-methylbutyryl-amino)pentanoylamino]butyrylamino}-5-phenylpentanamide], for which the IC50 in data set [1] was 0.52 µM; in the data set on bovine explants, 0.0275 µM; at recombinant human renin it was above 30 µM.

Consider `CC[C@H](C)[C@H](NC(=O)C[C@H](N)[C@H](Cc1ccccc1)NC(=O)[C@@H](NC(=O)[C@H](CC(C)C)NC(=O)CC(C)C)C(C)C)C(=O)Nc1ccn(C)n1` [Compound 27, N-[(1S,2S)-2-Methyl-1-(1-methyl-1H-pyrazol-3-ylcarbamoyl)butyl]-(S)-3-amino-4-{(S)-(S)-3-methyl-2-[(S)-4-methyl-2-(3-methylbutyrylamino)pentanoylamino]-butyrylamino}-5-phenylpentanamide], for which, in data set [2], the “Stability in synovial fluid” value was “stable”. The IC50 in data set [1] stood at 0.046 µM.

Regarding `CC[C@H](C)[C@H](NC(=O)C[C@H](N)[C@H](Cc1ccccc1)NC(=O)[C@@H](NC(=O)[C@H](CC(C)C)NC(=O)CC(C)C)C(C)C)C(=O)NCCc1ccccc1` [Compound 24, N-((1S,2S)-2-Methyl-1-phenethyl-carbamoylbutyl)-(S)-3-amino-4-{(S)-(S)-3-methyl-2-[(S)-4-methyl-2-(3-methylbutyryl-amino)pentanoylamino]butyrylamino}-5-phenylpentanamide], the “Stability in synovial fluid” value in data set [2] is given as “stable”. For the same molecule, the IC50 at recombinant human renin is above 30 µM.

`CC[C@H](C)[C@H](NC(=O)C[C@H](N)[C@H](Cc1ccccc1)NC(=O)[C@@H](NC(=O)CCc1ccccc1)C(C)C)C(=O)N[C@H](C(=O)OC)C(C)C` [Compound 17, Methyl (S)-2-((2S,3S)-2-{(3S,4S)-3-amino-4-[(S)-3-methyl-2-(3-phenylpropionylamino)butyrylamino]-5-phenylpentanoylamino}-3-methylpentanoylamino)-3-methyl-butyrate]: the IC50 in the data set on bovine explants is 0.0552 µM.

Turning to `CC[C@H](C)[C@H](NC(=O)C[C@H](N)[C@H](Cc1ccccc1)NC(=O)[C@@H](NC(=O)Cc1cccc(OC(F)(F)F)c1)C(C)C)C(=O)NCCC(C)C` [Compound 36, N-[(1S,2S)-2-Methyl-1-(3-methylbutyl-carbamoyl)butyl]-(S)-3-(S)-amino-4-{(S)-3-methyl-2-[2-(3-trifluoromethoxyphenyl)-acetylamino]butyrylamino}-5-phenyl-penlanamide], the figures for the IC50 (in data set [1]; in the data set on bovine explants; on recombinant human renin) were 0.028 µM, 0.0138 µM and above 30 µM, respectively.

`CC[C@H](C)[C@H](NC(=O)C[C@H](N)[C@H](Cc1ccccc1)NC(=O)[C@@H](NC(=O)[C@H](Cc1ccccc1)NC(=O)CC(C)C)C(C)C)C(=O)N[C@H](C(=O)O)C(C)C` [Compound 33, (S)-2-[(2S,3S)-2-((3S,4S)-3-Amino-4-{(S)-3-methyl-2-[(S)-2-(3-methylbutyrylamino)-3-phenylpropionylamino]-1-oxobutyl-amino}-5-phenylpentanoylamino)-3-methylpentanoylamino]-3-methyl-butyric acid] (Isovaleryl-FV[X1]IV-OH): the “Stability in synovial fluid” value in data set [2] was “stable”. Besides, the IC50 in the data set on bovine explants amounted to 0.00264 µM.

Consider `CC[C@H](NC(=O)[C@H](CC(C)C)NC(=O)OC(C)(C)C)C(=O)N[C@@H](Cc1ccccc1)[C@@H](N)CC(=O)N[C@H](C(=O)N[C@H](C(=O)OC)C(C)C)[C@@H](C)CC` [Compound 1, Methyl (S)-2-((2S,3S)-2-{(3S,4S)-3-amino-4-[(S)-2-((S)-2-tert-butoxycarbonylamino-4-methylpentanoylamino)butyrylamino]-5-phenylpentanoylamino}-3-methylpentanoylamino)-3-methylbutyrate] (Boc-L[Abu][X1]IV-OMe), for which the IC50 came out at 0.04 µM in data set [1] and 0.00313 µM in the data set on bovine explants.
